Like-named read-outs stand apart in the source and are kept apart here.
Key:
KRAS G12D [1] = biological target: KRAS G12D (Homo sapiens, UniProt P01116, C118A/G12D); assay: KRAS G12D Coupled Nucleotide Exchange Assay; format: biochemical; conditions: GDP-bound KRAS G12D/C118A, 2 hours pre-incubation, SOS-mediated nucleotide exchange, AlphaScreen
Description: The assay plates were then read on a PerkinElmer EnVision Multilabel Reader, using AlphaScreen® technology, and data were analyzed using a 4-parameter logistic model to calculate IC50 values.

KRAS G12D [2] = biological target: KRAS G12D (Homo sapiens, UniProt P01116, G12D); assay: KRAS G12D TR-FRET Assay; conditions: His-tagged KRAS G12D, biotinylated KRPep-2d, read-out: KRAS G12D Binding IC50
Description: The plate was incubated for 30 minutes at room temperature. Biotinylated KRPep-2d substrate (Amgen) was diluted to 20 nM in Assay Buffer and 2 uL was added to all wells and incubated for 1 hour at room temperature. Detection Reagent (0.4 nM LANCE Eu-W1024 Anti-6×His (Perkin Elmer AD0401), 5 nM streptavidin-d2 (Cisbio 610SADLA)) was prepared in Assay Buffer, then 4 μL was added to the plate and incubated for 1 hour at room temperature.

p-ERK (AsPC-1 cells) = assay: Phospho-ERK1/2 MSD Assay; format: cell-based
Description: Sixteen hours prior to compound treatment, AsPC-1 cells were seeded in 96-well cell culture plates at a density of 25,000 cells/well and incubated at 37° C., 5% CO2. A compound dose-response titration was diluted in growth media, added to appropriate wells of a cell culture plate, and then incubated at 37° C., 5% CO2 for 2 hours. […] Phosphorylation of ERK1/2 in compound-treated lysates was assayed using Phospho-ERK1/2 Whole Cell Lysate kits (Meso Scale Discovery K151DWD) according to the manufacturer's protocol. Assay plates were read on a Meso Scale Discovery Sector Imager 6000, and data were analyzed using a 4-parameter logistic model to calculate IC50 values.

[3] = Homo sapiens, ASPC1, 2 h, read-out: 2 h p-ERK (AsPC-1 cells), IC50 (μM), AsPC-1 cells, 2 hours compound treatment
[4] = read-out: 2 h p-ERK (AsPC-1 cells), IC50, AsPC-1 cells, 2 hours compound treatment

Sequence of KRAS G12D (Homo sapiens, UniProt P01116, G12D) (P01116 1-188 isoform P01116-2 G12D): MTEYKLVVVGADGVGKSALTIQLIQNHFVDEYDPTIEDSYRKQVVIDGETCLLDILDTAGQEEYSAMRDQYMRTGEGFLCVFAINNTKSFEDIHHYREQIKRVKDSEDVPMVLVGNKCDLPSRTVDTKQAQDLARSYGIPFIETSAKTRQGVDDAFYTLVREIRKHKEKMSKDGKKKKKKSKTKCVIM
Sequence of KRAS G12D (Homo sapiens, UniProt P01116, C118A/G12D) (P01116 1-169 isoform P01116-2 G12D/C118A): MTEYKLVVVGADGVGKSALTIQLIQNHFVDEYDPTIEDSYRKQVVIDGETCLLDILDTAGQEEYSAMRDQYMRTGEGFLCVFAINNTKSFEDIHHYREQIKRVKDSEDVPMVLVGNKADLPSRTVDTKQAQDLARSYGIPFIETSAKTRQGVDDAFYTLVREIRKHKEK

Row | IC50 (KRAS G12D [1]) | IC50 (KRAS G12D [2]) | IC50 (p-ERK (AsPC-1 cells); [3]) | IC50 (p-ERK (AsPC-1 cells); [4]) | SMILES
1 | 10 nM | 6 nM |  | 0.131 µM | CCc1c(F)ccc2cc(O)cc(-c3ncc4c(N5CCCC6(C5)CC(C)(O)C6)nc(OC[C@@]56CCCN5C[C@H](F)C6)nc4c3F)c12 (single isomer, unassigned) [Example 57]
2 | 1 nM | 1 nM | 0.003 µM |  | Oc1cc(-c2ncc3c(N4CCC[C@]5(CCO5)C4)nc(OC[C@@]45CCCN4C[C@H](F)C5)nc3c2F)c2c(Cl)c(F)ccc2c1 (single isomer, unassigned) [Example 58]
3 | 2 nM | 3 nM | 0.006 µM |  | Oc1cc(-c2ncc3c(N4CCCC5(CCO5)C4)nc(OC[C@@]45CCCN4C[C@H](F)C5)nc3c2F)c2c(Cl)cccc2c1 (single isomer, unassigned) [Example 59]
4 | 3 nM | 6 nM | 0.019 µM |  | CCc1c(F)ccc2cc(O)cc(-c3ncc4c(N5CCCC6(CCO6)C5)nc(OC[C@@H]5C[C@@H](F)CN5C)nc4c3F)c12 (single isomer, unassigned) [Example 60]
5 | 4 nM | 10 nM | 0.007 µM |  | CCc1c(F)ccc2cc(O)cc(-c3ncc4c(N5CCCC6(CCO6)C5)nc(OC[C@@]56CCCN5C[C@H](F)C6)nc4c3C)c12 (single isomer, unassigned) [Example 61]
6 | 2 nM | 4 nM | 0.026 µM |  | CCc1c(F)ccc2cccc(-c3ncc4c(N5CCCC6(CNC(=O)O6)C5)nc(OC[C@@]56CCCN5C[C@H](F)C6)nc4c3F)c12 (single isomer, unassigned) [Example 63]
7 | 1 nM | 3 nM | 0.03 µM |  | CCc1c(F)ccc2cc(O)cc(-c3ncc4c(N5CCCC6(CCC(=O)O6)C5)nc(OC[C@@]56CCCN5C[C@H](F)C6)nc4c3F)c12 (single isomer, unassigned) [Example 66]
8 | 2 nM | 4 nM |  | 0.06 µM | CCc1c(F)ccc2cc(O)cc(-c3ncc4c(N5CCCC6(COC(=O)O6)C5)nc(OC[C@@]56CCCN5C[C@H](F)C6)nc4c3F)c12 (single isomer, unassigned) [Example 67]
9 | 11 nM | 23 nM |  | 1.58 µM | CCc1c(F)ccc2cc(O)cc(-c3ncc4c(N5CCCC6(COC(=O)O6)C5)nc(OC[C@@]56CCCN5C[C@H](F)C6)nc4c3F)c12 (single isomer, unassigned) [Example 68]

Further lines, the molecule ahead of its results:

Row | SMILES | IC50 (KRAS G12D [1]) | IC50 (KRAS G12D [2]) | IC50 (p-ERK (AsPC-1 cells); [3]) | IC50 (p-ERK (AsPC-1 cells); [4])
10 | CCc1c(F)ccc2cc(O)cc(-c3ncc4c(N5CCCC6(CNC6=O)C5)nc(OC[C@@]56CCCN5C[C@H](F)C6)nc4c3F)c12 (single isomer, unassigned) [Example 45] | 5 nM | 3 nM | 0.161 µM | 
11 | CCc1c(F)ccc2cc(O)cc(-c3ncc4c(N5CCCC6(CCC6O)C5)nc(OC[C@@]56CCCN5C[C@H](F)C6)nc4c3F)c12 (single isomer, unassigned) [Example 49] | 13 nM | 7 nM | 0.576 µM | 
12 | CCc1c(F)ccc2cc(O)cc(-c3ncc4c(N5CCCC6(C5)CC(C)(O)C6)nc(OC[C@@]56CCCN5C[C@H](F)C6)nc4c3F)c12 (single isomer, unassigned) [Example 56] | 6 nM | 4 nM |  | 0.343 µM
13 | CCc1c(F)ccc2cc(O)cc(-c3ncc4c(N5CC(O)CC6(CCC6)C5)nc(OC[C@@]56CCCN5C[C@H](F)C6)nc4c3F)c12 (stereo partly drawn) [Example 1, 6-(7-(8-Ethyl-7-fluoro-3-hydroxynaphthalen-1-yl)-8-fluoro-2-(((2R,7aS)-2-fluorotetrahydro-1H-pyrrolizin-7a(5H)-yl)methoxy)pyrido[4,3-d]pyrimidin-4-yl)-6-azaspiro[3.5]nonan-8-ol] | 4 nM | 3 nM | 0.329 µM | 
14 | CCc1c(F)ccc2cc(O)cc(-c3ncc4c(N5CCOC6(CC6)C5)nc(OC[C@@]56CCCN5C[C@H](F)C6)nc4c3F)c12 [Example 2, 5-Ethyl-6-fluoro-4-(8-fluoro-2-(((2R,7aS)-2-fluorotetrahydro-1H-pyrrolizin-7a(5H)-yl)methoxy)-4-(4-oxa-7-azaspiro[2.5]octan-7-yl)pyrido[4,3-d]pyrimidin-7-yl)naphthalen-2-ol] | 4 nM | 8 nM | 0.523 µM | 
15 | CCc1c(F)ccc2cc(O)cc(-c3ncc4c(N5CCCC6(CC(=O)N6C)C5)nc(OC[C@@]56CCCN5C[C@H](F)C6)nc4c3F)c12 (stereo partly drawn) [Example 6, 6-(7-(8-Ethyl-7-fluoro-3-hydroxynaphthalen-1-yl)-8-fluoro-2-(((2R,7aS)-2-fluorotetrahydro-1H-pyrrolizin-7a(5H)-yl)methoxy)pyrido[4,3-d]pyrimidin-4-yl)-1-methyl-1,6-diazaspiro[3.5]nonan-2-one] | 10 nM | 8 nM | 2.4 µM | 
16 | CCc1c(F)ccc2cc(O)cc(-c3ncc4c(N5CC(C)(O)CC6(CC6)C5)nc(OC[C@@]56CCCN5C[C@H](F)C6)nc4c3F)c12 (stereo partly drawn) [Example 19, 5-(7-(8-Ethyl-7-fluoro-3-hydroxynaphthalen-1-yl)-8-fluoro-2-(((2R,7aS)-2-fluorotetrahydro-1H-pyrrolizin-7a(5H)-yl)methoxy)pyrido[4,3-d]pyrimidin-4-yl)-7-methyl-5-azaspiro[2.5]octan-7-ol] | 6 nM | 5 nM | 0.341 µM | 
17 | Oc1cc(Cl)c(C2CC2)c(-c2ncc3c(N4CCCC5(CCO5)C4)nc(OC[C@@]45CCCN4C[C@H](F)C5)nc3c2F)c1 (stereo partly drawn) [Example 26, 3-Chloro-4-cyclopropyl-5-(8-fluoro-2-(((2R,7aS)-2-fluorotetrahydro-1H-pyrrolizin-7a(5H)-yl)methoxy)-4-(1-oxa-6-azaspiro[3.5]nonan-6-yl)pyrido[4,3-d]pyrimidin-7-yl)phenol] | 2 nM | 1 nM | 0.066 µM | 
18 | CCc1c(F)ccc2cc(O)cc(-c3ncc4c(N5CCCC6(CCCO6)C5)nc(OC[C@@]56CCCN5C[C@H](F)C6)nc4c3F)c12 (stereo partly drawn) [Example 27, 5-Ethyl-6-fluoro-4-(8-fluoro-2-(((2R,7aS)-2-fluorotetrahydro-1H-pyrrolizin-7a(5H)-yl)methoxy)-4-(1-oxa-7-azaspiro[4.5]decan-7-yl)pyrido[4,3-d]pyrimidin-7-yl) naphthalen-2-ol] | 6 nM | 4 nM | 0.137 µM | 
19 | CCc1c(F)ccc2cc(O)cc(-c3ncc4c(N5CCCC6(CCC(=O)N6)C5)nc(OC[C@@]56CCCN5C[C@H](F)C6)nc4c3F)c12 (stereo partly drawn) [Example 28, 7-(7-(8-Ethyl-7-fluoro-3-hydroxynaphthalen-1-yl)-8-fluoro-2-(((2R,7aS)-2-fluorotetrahydro-1H-pyrrolizin-7a(5H)-yl)methoxy)pyrido[4,3-d]pyrimidin-4-yl)-1,7-diazaspiro[4.5]decan-2-one] | 5 nM | 3 nM | 0.923 µM | 
20 | C#Cc1c(F)ccc2cccc(-c3ncc4c(N5CCCC6(CNC(=O)C6)C5)nc(OC[C@@]56CCCN5C[C@H](F)C6)nc4c3F)c12 (stereo partly drawn) [Example 29, 7-(7-(8-Ethynyl-7-fluoronaphthalen-1-yl)-8-fluoro-2-(((2R,7aS)-2-fluorotetrahydro-1H-pyrrolizin-7a(5H)-yl)methoxy)pyrido[4,3-d]pyrimidin-4-yl)-2,7-diazaspiro[4.5]decan-3-one] | 9 nM | 10 nM | 2.04 µM | 
21 | CCc1c(F)ccc2cccc(-c3ncc4c(N5CCCC6(CNC(=O)C6)C5)nc(OC[C@@]56CCCN5C[C@H](F)C6)nc4c3F)c12 (stereo partly drawn) [Example 30, 7-(7-(8-Ethyl-7-fluoronaphthalen-1-yl)-8-fluoro-2-(((2R,7aS)-2-fluorotetrahydro-1H-pyrrolizin-7a(5H)-yl)methoxy)pyrido[4,3-d]pyrimidin-4-yl)-2,7-diazaspiro[4.5]decan-3-one] | 16 nM | 19 nM | 1.98 µM | 
22 | CCc1c(F)ccc2cc(O)cc(-c3ncc4c(N5CCCC6(CCOC6)C5)nc(OC[C@@]56CCCN5C[C@H](F)C6)nc4c3F)c12 (stereo partly drawn) [Example 33, 5-Ethyl-6-fluoro-4-(8-fluoro-2-(((2R,7aS)-2-fluorotetrahydro-1H-pyrrolizin-7a(5H)-yl)methoxy)-4-(2-oxa-7-azaspiro[4.5]decan-7-yl)pyrido[4,3-d]pyrimidin-7-yl)naphthalen-2-ol] | 12 nM | 8 nM | 0.452 µM | 
23 | CCc1c(F)ccc2cc(O)cc(-c3ncc4c(N5CCC6(CC(O)C6)C5)nc(OC[C@@]56CCCN5C[C@H](F)C6)nc4c3F)c12 (stereo partly drawn) [Example 37, 6-(7-(8-Ethyl-7-fluoro-3-hydroxynaphthalen-1-yl)-8-fluoro-2-(((2R,7aS)-2-fluorotetrahydro-1H-pyrrolizin-7a(5H)-yl)methoxy)pyrido[4,3-d]pyrimidin-4-yl)-6-azaspiro[3.4]octan-2-ol] | 38 nM | 85 nM | 2.53 µM | 

Reference: patent publication US20240417412A1, “HETEROCYCLIC COMPOUNDS AND METHODS OF USE” (AMGEN INC., priority 2022, published 2024)
